Experimental data as given in ChEMBL document CHEMBL1130995, “Anti-AIDS agents. 32. Synthesis and anti-HIV activity of betulin derivatives” (Bioorg Med Chem Lett, 1998).

How the values were obtained:
H9 [1] = experiment: Compound was evaluated for anti-HIV activity in H9 lymphocytes; assay type: functional, cell-based; conditions: Homo sapiens
H9 [2] = experiment: Compound was evaluated for cytotoxicity in H9 lymphocytes; assay type: functional, cell-based; conditions: Homo sapiens

| Structure (SMILES) | EC50 (H9 [1]) [µM] | IC50 (H9 [2]) [µM] |
| --- | --- | --- |
| Cc1cn([C@H]2C[C@H](N=[N+]=[N-])[C@@H](CO)O2)c(=O)[nH]c1=O [ZIDOVUDINE] | 0.015 |  |
| C=C(C)[C@@H]1CC[C@]2(COC(=O)CC(C)(C)CC(=O)O)CC[C@]3(C)[C@H](CC[C@@H]4[C@@]5(C)CC=CC(C)(C)[C@@H]5CC[C@]43C)[C@@H]12 | 5.4 | 28.3 |
| CC(C)[C@@H]1CC[C@]2(COC(=O)CC3(CC(=O)O)CCCC3)CC[C@]3(C)[C@H](CC[C@@H]4[C@@]5(C)CC[C@H](OC(=O)CC6(CC(=O)O)CCCC6)C(C)(C)[C@@H]5CC[C@]43C)[C@@H]12 | 0.58 | 21.6 |
| CC(C)[C@@H]1CC[C@]2(COC(=O)CC(C)(C)CC(=O)O)CC[C@]3(C)[C@H](CC[C@@H]4[C@@]5(C)CC[C@H](OC(=O)CC(C)(C)CC(=O)O)C(C)(C)[C@@H]5CC[C@]43C)[C@@H]12 | 0.0047 | 10.6 |
| C=C(C)[C@@H]1CC[C@]2(COC(=O)CC(C)(C)CC(=O)O)CC[C@]3(C)[C@H](CC[C@@H]4[C@@]5(C)CC[C@H](OC(=O)CC(C)(C)CC(=O)O)C(C)(C)[C@@H]5CC[C@]43C)[C@@H]12 | 0.00066 | 14.2 |
| CCC(C)(CC(=O)O)CC(=O)OC[C@]12CC[C@@H](C(C)C)[C@@H]1[C@H]1CC[C@@H]3[C@@]4(C)CC[C@H](OC(=O)CC(C)(CC)CC(=O)O)C(C)(C)[C@@H]4CC[C@@]3(C)[C@]1(C)CC2 (some centres undefined) | 0.075 | 18.7 |
| C=C(C)[C@@H]1CC[C@]2(COC(=O)CC(C)(C)CC(=O)O)CC[C@]3(C)[C@H](CC[C@@H]4[C@@]5(C)CCC(=O)C(C)(C)[C@@H]5CC[C@]43C)[C@@H]12 | 10 | 29.2 |
| C=C(C)[C@@H]1CC[C@]2(CO)CC[C@]3(C)[C@H](CC[C@@H]4[C@@]5(C)CC[C@H](O)C(C)(C)[C@@H]5CC[C@]43C)[C@@H]12 [BETULIN] | 23 | 43.7 |
| C=C(C)[C@@H]1CC[C@]2(COC(=O)CC3(CC(=O)O)CCCC3)CC[C@]3(C)[C@H](CC[C@@H]4[C@@]5(C)CC[C@H](OC(=O)CC6(CC(=O)O)CCCC6)C(C)(C)[C@@H]5CC[C@]43C)[C@@H]12 | 0.077 | 20.5 |
| C=C(C)[C@@H]1CC[C@]2(CO)CC[C@]3(C)[C@H](CC[C@@H]4[C@@]5(C)CC=CC(C)(C)[C@@H]5CC[C@]43C)[C@@H]12 | 11.9 | 31.9 |
| C=C(C)[C@@H]1CC[C@]2(C(=O)O)CC[C@]3(C)[C@H](CC[C@@H]4[C@@]5(C)CC[C@H](OC(=O)CC(C)(C)CC(=O)O)C(C)(C)[C@@H]5CC[C@]43C)[C@@H]12 | 0.0023 |  |
| C=C(C)[C@@H]1CC[C@]2(COC(=O)CC(C)(C)CC(=O)O)CC[C@]3(C)[C@H](CC[C@@H]4[C@@]5(C)CC[C@H](O)C(C)(C)[C@@H]5CC[C@]43C)[C@@H]12 | 3.6 | 28.2 |
| C=C(C)[C@@H]1CC[C@]2(COC(=O)CC(C)(CC)CC(=O)O)CC[C@]3(C)[C@H](CC[C@@H]4[C@@]5(C)CC[C@H](OC(=O)CC(C)(CC)CC(=O)O)C(C)(C)[C@@H]5CC[C@]43C)[C@@H]12 (some centres undefined) | 0.0053 | 18.4 |
